Measured values taken from patent US10288604B2, “Method for imaging cell using fluorescence-labeled sugar derivative having coumarin derivative bound thereto, and imaging agent” (HIROSAKI UNIVERSITY, priority 2012, dated 2019).
Entries after “also recorded” stand apart in the source; their conditions may differ.

How the values were obtained:
Type in all cases: cell-based
[1] = system: mouse insulinoma cells (MIN6); assay: Uptake into MIN6 cells and influence of glucose transport inhibitors (fluorescent microplate reader)
Experimental: Cryopreserved MIN6 cells (cells donated from Professor Miyazaki Junichi of Osaka University and cultured 5 to 8 passages) were subjected to culture according to an ordinary method, and cultures at 7 to 9 passages were used in experiments.
NaCl 129.0 mM, KCl 4.75 mM, KH2 PO4 1.19 mM, MgSO4.7H2O 1.19 mM, CaCl2.2H2O 1.0 mM, NaHCO3 5.02 mM, D-Glucose 5.6 mM, HEPES 10 mM (pH was adjusted to 7.35 with 1M NaOH). For inhibiting entrance and elimination of a fluorescently labeled glucose via gap junction/hemichannel, 0.1 mM Carbenoxolone (SIGMA #C4790) was added. This KRB solution was used as a solution for preparing a 2-PBLG solution.
2-PBDG and 2-PBLG were charged into wells at the third column and the fifth column, respectively, using a 8-channel pipette. Before administration, the autofluorescence of each well was measured beforehand by a fluorescent micro plate reader (Flex Station, manufactured by Molecular Device). The measurement conditions include Bottom Read, Ex 401 nm, Em 453 nm, Cut off 420 nm, Averaging 3, and high sensitivity of Photomultiplier. In the measurement method, Well Scan Mode was used. In Well Scan Mode, the inside of one well was divided into 9 regions of interest (diameter: 1.5 mm) and measurement was performed each independently.
Next, in wells (3C, 3E, 3G) for measuring the effect of a glucose transport inhibitor phloretin, phloretin (final 150 μM) was administered beforehand from 5 minutes prior to administration of 2-PBDG, while KRB was added to other wells (3B, 3D, 3F). Similar operation was also conducted on the fifth column where 2-PBLG was to be administered. 2-PBDG and 2-PBLG were administrated at 37° C. for 10 minutes.
After completion of administration, a diluting operation of the fluorescence solution in the well using 300 μL of a KRB solution was repeated set times each for 30 seconds. The repetition time was determined so that the fluorescence intensity detected by wells of A-th row and H-th row set as a control group was equivalent to the fluorescence intensity of a blank well containing no cell, and complete washout was confirmed in every experiment. In the case of 2-PBDG and 2-PBLG, this washout process needed 8 minutes, thus, measurement of fluorescence after administration was carried out 9 minutes after.
According to this method, even if cells having undergone a loss of the plasma membrane contacted 2-PBDG and 2-PBLG and once took up these compounds into themselves, it is judged that contribution of the increase in the fluorescence intensity to the whole observation area was ignorable level since these compounds had already been washed out of the cells when performing the measurement. This was supported by a pharmacological inhibition experiment separately in which the increase in the fluorescence intensity almost completely disappeared in the presence of an inhibitor. The above-described method was conducted in the same manner also when other inhibitor, for example, cytochalasin B (10 μM) was added.
The change of fluorescence intensity by administration of a D-glucose derivative (2-PBDG), an L-glucose derivative (2-PBLG) and PB—NH2 prepared by amidating Pacific Blue (PB) chromophore group to MIN6 cells on day of 10 of culture and the effect by a glucose transport inhibitor were confirmed in the same manner as in Example 4. PB—NH2 has the following structure (Ex max. 402 nm, Em max. 451 nm).
An experiment was conducted in the same manner as in Example 4.
The experiment was carried out 3 times independently, and the same results were obtained in all cases. In the experiment of administration of 2-PBDM, excitation occurred at a maximum excitation light wavelength of 404 nm and fluorescence was acquired at a maximum emission wavelength of 453 nm.

[2] = system: neurons acutely dissociated from mouse midbrain substantia nigra pars reticulata; assay: Application of fluorescent sugar derivatives to acutely dissociated normal neurons (confocal imaging of uptake); settings: for increase in fluorescence intensity in the neuron before and after administration: 3 minutes, comparative compounds
Experimental: This was conducted according to a method described in WO 2010/16587.
Living neurons were acutely dissociated from mouse midbrain substantia nigra pars reticulata, and to which a mixed solution containing 100 μM of 2-PBDG and 20 μM of 2-TRLG was administered at 37° C. for 5 minutes. FIGS. 1A to C represent confocal microscopic images taken immediately before this. A is a fluorescence image in blue wavelength region (Blue channel, wavelength range: 415-580 nm). The position of cells is recognized by autofluorescence. The fluorescence signal intensity is represented by pseudocolor. B is a fluorescence image in red wavelength region (Red channel, 580-740 nm). A and B were obtained both by simultaneous excitation using 405 nm Blue diode laser at an intensity of 60%, wherein photomultipliers (PMT) 1 and 2 were used respectively, and the detection sensitivity of PMT2 was raised higher than PMT1 so that the presence or absence of invasion of 2-TRLG can be detected in a sensitive manner. C is a view in which the bright field image is overlaid on the fluorescence images of A and B.
An experiment was conducted in the same manner as in Example 2.
FIGS. 2A to C represent confocal microscopic images immediately before administration of a mixed solution containing 100 μM of 2-PBLG and 20 μM of 2-TRLG at 37° C. to acutely dissociated neurons of mouse midbrain substantia nigra pars reticulata for 5 minutes.
FIG. 3 represents confocal microscopic images before and after administration of a mixed solution containing 100 μM of 2-HCDG and 20 μM of 2-TRLG at 37° C. for 3 minutes to neurons acutely dissociated from mouse midbrain substantia nigra pars reticulata. A and B are fluorescence images acquired before administration in Blue channel (415-580 nm) and Red channel (580-740 nm), respectively. The excitation wavelength is 405 nm. C is an image of differential interference (Differential Interference contrast, DIC). D is an overlay of the above-described images. E to H are the same as A to D, excepting that E to H are images acquired 4 minutes after initiation of washout of the fluorescence tracer solution after administration of the 2-HCDG+2-TRLG fluorescence tracer solution at 37° C. for 3 minutes. […] Since invasion of 2-TRLG into a cell is not observed, the plasma membrane of the neuron is thought to be maintained intactly.
Since the optimal excitation wavelength was as very low as 320 nm in this experiment, an image was acquired by Retiga-2000R CCD camera manufactured by Q-imaging via a custom-order filter constituted of an excitation filter (320 nm) (half width: 40 nm), a fluorescence filter (435 nm) (half width: 40 nm) and a dichroic mirror (409 nm), by a xenon lamp, using Nikon Ti-E real time deconvolution microscope.

[3] = system: tumor cell cluster composed of mouse insulinoma cells (MIN6); assay: Imaging of tumor cell cluster composed of MIN6 cells (real time laser scanning confocal microscope); settings: MIN6 cluster day 13; for fluorescence of cells in the cancer cell cluster 8 minutes after completion of administration: mixed solution 100 μM 2-PBLG, 100 μM 2-NBDLG, 20 μM 2-TRLG
Experimental: A culture solution prepared by suspending MIN6 cells at a proportion of 10×10^4 cells/mL was dropped in an amount of 10 μL on a glass cover slip, then, allowed to adhere to the glass surface, and 3 mL of the culture solution was added and cultured. The half quantity of the culture solution was changed every three days.
Cryopreserved MIN6 cells (cells donated from Professor Miyazaki Junichi of Osaka University and cultured 5 to 8 passages) were subjected to culture according to an ordinary method, and cultured 7 to 9 passages which were used in experiments. The half amount of the culture solution was changed every two days.
NaCl 120.0 mM, KCl 4.75 mM, KH2 PO4 1.19 mM, MgSO4.7H2O 1.19 mM, CaCl2.2H2O 1 mM, NaHCO3 5.02 mM, D-Glucose 5.6 mM, HEPES 10 mM (adjusted to pH 7.35 with 1M NaOH). For inhibiting entrance and elimination of fluorescently labeled glucose via a gap junction/hemichannel, 0.1 mM Carbenoxolone (SIGMA #C4790) was added. The HEPES solution for image acquisition was used as a solution for preparing a 2-PBLG solution and as a solution for preparing a 2-PBLG/2-TRLG solution and 2-PBLG/2-NBDLG/2-TRLG solution.
A glass cover slip wherein MIN6 cells had been cultured was transferred into a HEPES solution for image acquisition in a perfusion chamber set on a universal stage (Leica 11600234) on a confocal laser scanning microscope (TCS SP5 available from Leica), and adhered gently and tightly to the glass surface at the bottom of the chamber. […] Further, there is an excellent effect that in the space sandwiched by the metal guides, the perfusion solution flows smoothly as a laminar flow and quick solution exchange is possible.
A perfusion solution feeding system is equipped with one 60 mL cylinder for a control solution and five 10 mL cylinders for agent feeding, which can be switched as needed by a magnetic valve to allow perfusion. In experiments according to the present invention, a 5.6 mM glucose-containing HEPES solution for image acquisition was administered using the 60 mL cylinder and a mixed solution of 2-PBLG/2-NBDLG/2-TRLG, a mixed solution of 2-PBDG/2-TRLG, or a mixed solution of 2-PBLG/2-TRLG was administered using one of the five 10 mL cylinders. As described below, to avoid generation of bubbles in the perfusion chamber, both the solutions were heated beforehand, combined in one tube before being introduced into the perfusion chamber, the flow rate thereof being controlled by a flow rate controller, then, heated again by an inline heater and fed to the perfusion chamber on the confocal microscope.
A laser scan confocal microscope (manufactured by Leica, TCS-SP5 system, microscope body is DMI6000 CS trino electromotive inverted microscope) was used in conventional mode. Regarding laser used, a 405 nm diode laser was used for excitation of 2-PBLG and 2-PBDG, excitation of a mixed solution of 2-PBLG (or 2-PBDG) and 2-TRLG with a single light source, or live staining of nucleus by DAPI. The irradiation intensity was appropriately adjusted in accordance with the fluorescent pigment used so as to obtain sufficient observation intensity by an acoustic optical polarization element (Acoustic Optical Tunable Filter, AOTF). 2-NBDLG and 2-TRLG were excited by 488 nm Argon laser. The scan speed was 200 Hz or 400 Hz.
In fluorescence detection, a photomultiplier detector (PMT) 1 was used for detection of blue fluorescence by 2-PBDG or 2-PBLG and images were acquired in a wavelength detection range set at 415-580 nm in the case of detection of bicolor of 2-PBLG/2-TRLG and in a wavelength detection range set at 415-500 nm in the case of detection of tricolor of 2-PBLG/2-NBDLG/2-TRLG. For detection of green fluorescence by 2-NBDLG, PMT2 (called green channel, the same shall apply hereinafter) was used in a wavelength detection range of 500-580 nm. For detection of red fluorescence by 2-TRLG, PMT3 (called red channel, the same shall apply hereinafter) was used in a wavelength detection range of 580-740 nm. […]

[4] = 100 μM derivative, phloretin 150 μM, MIN6 day 10
[5] = 100 μM with 20 μM 2-TRLG, 37° C.

O=C(NC1C(O)OC(CO)[C@@H](O)C1O)c1cc2cc(F)c(O)c(F)c2oc1=O (stereo partly drawn) [2-PBDM, 2-Deoxy-2-((6,8-difluoro-7-hydroxycoumarin-3-yl)carboxamido)-D-mannose]
effect of phloretin on increase in fluorescence intensity (in words) [1, 4]: slight but significant inhibitory effect

O=C(NC1C(O)OC(CO)[C@@H](O)C1O)c1cc2ccc(O)cc2oc1=O (stereo partly drawn) [2-HCDG, 2-Deoxy-2-((7-hydroxycoumarin-3-yl)carboxamido)-D-glucose]
increase in fluorescence intensity in the neuron before and after administration [2, 5]: no increase in the fluorescence intensity is detected

NC(=O)c1cc2cc(F)c(O)c(F)c2oc1=O [PB—NH2, reference compound]
effect of phloretin on increase in fluorescence intensity (in words) [1, 4]: remarkably promoted
increase in the fluorescence with phloretin compared to when only PB—NH2 is administrated ([1]; 100 μM, phloretin 150 μM, n=3 experiments): 384.1±24.2%
increase in fluorescence intensity compared with that of 2-PBLG ([1]; 100 μM, same culture plate, MIN6 day 10): significantly larger

COc1ccc2c(CC(=O)N[C@@H](C=O)[C@@H](O)[C@H](O)[C@H](O)CO)cc(=O)oc2c1 [2-MCDG, 2-Deoxy-2-(2-(7-methoxycoumarin-4-yl)acetamido)-D-glucose]
increase in fluorescence intensity in the neuron before and after administration [2, 5]: not recognized

O=[N+]([O-])c1ccc(NC2C(O)OC(CO)[C@H](O)C2O)c2nonc12 (stereo partly drawn) [2-NBDLG, 2-[N-(7-nitrobenz-2-oxa-1,3-diazol-4-yl)amino]-2-deoxy-L-glucose, reference compound]
fluorescence of cells in the cancer cell cluster 8 minutes after completion of administration [3]: difficult to specify these cells only by the fluorescence imaging by 2-NBDLG

O=C(NC1C(O)OC(CO)[C@@H](O)C1O)c1cc2cc(F)c(O)c(F)c2oc1=O (stereo partly drawn) [2-PBDG, 2-Deoxy-2-((6,8-difluoro-7-hydroxycoumarin-3-yl)carboxamido)-D-glucose]
intracellular fluorescence intensity in Blue channel as compared with that before administration ([2]; 100 μM with 20 μM 2-TRLG, 37° C., 5 minutes, image 4 minutes after initiation of washout): increased excepting nucleus
persistence of intracellular blue fluorescence after washout ([2]; images 8 and 20 minutes after initiation of washout): not easily diminished
decreased value of fluorescence intensity owing to phloretin (average) ([1]; 100 μM derivative, 150 μM phloretin, MIN6 day 10, increase without phloretin as reference): 22.4%
effect of cytochalasin B on increase in fluorescence intensity ([1]; 100 μM derivative, cytochalasin B 10 μM, MIN6 day 10): did not show a significant inhibitory effect
fluorescence intensity after administration as compared with that before administration ([1]; 100 μM, MIN6 on day 10 of culture, Ex 401 nm, Em 453 nm): increases significantly

2-TexasRed-2-amino-2-deoxy-L-glucose [2-TRLG]
fluorescence intensity in Red channel / invasion of 2-TRLG into a cell ([2]; 20 μM 2-TRLG co-administered with 100 μM blue derivative, 37° C.): did not increase; also recorded: scarcely increased; also recorded: not observed
fluorescence of cells in the cell cluster 2 minutes after initiation of washout ([3]; mixed solution 100 μM 2-PBLG and 20 μM 2-TRLG, administered 5 minutes): invades into the cell having increased membrane permeability mainly present at the center of a cell cluster
fluorescence of cells in the cancer cell cluster 8 minutes after completion of administration [3]: very weak red fluorescence
